Assay results taken from the supplement of paper PMC10307832.

How the values were obtained:
Test in all cases: relative viability (nuclei count vs DMSO), 5 days (fraction); higher = more cells survive
[1] = compound: CC1=C(C(=NN1)C)CC2=C(C3=C(S2)N(C(=O)N(C3=O)C)CC(C)C)C(=O)N4C[C@@H](CO4)O + CC(=O)c1c(C)c2cnc(Nc3ccc(N4CCNCC4)cn3)nc2n(C2CCCC2)c1=O [Palbociclib] (partner 0.5 µM)
Method in brief: (§1)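 After 5 days of treatment, lung cancer cells in 1536-well plates were fixed and stained in a single step (final 0.05% Triton X-100, 1% formaldehyde, 1 ug/ml Hoechst) and their nuclei counted on 4× images. Treatment had been applied by pin tool the day after seeding as one drug alone or as a fixed anchor-drug dose with five library-drug doses (not always all listed) in √10 steps. Relative viability is the nuclei count of treated wells divided by that of vehicle wells, and values are medians of duplicate plates.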

IDH-C35 + Palbociclib = compound: Cc1ccccc1C(C(=O)NC1CCCCC1)N(C(=O)Cn1ccnc1C)c1cccc(F)c1 [IDH-C35] + CC(=O)c1c(C)c2cnc(Nc3ccc(N4CCNCC4)cn3)nc2n(C2CCCC2)c1=O [Palbociclib] (partner 0.5 µM)
Method in brief: as §1

IDH-C35 + Pictilisib = compound: Cc1ccccc1C(C(=O)NC1CCCCC1)N(C(=O)Cn1ccnc1C)c1cccc(F)c1 [IDH-C35] + CS(=O)(=O)N1CCN(Cc2cc3nc(-c4cccc5[nH]ncc45)nc(N4CCOCC4)c3s2)CC1 [Pictilisib] (partner 1 µM)
Method in brief: as §1

IDH-C35 + Olaparib = compound: Cc1ccccc1C(C(=O)NC1CCCCC1)N(C(=O)Cn1ccnc1C)c1cccc(F)c1 [IDH-C35] + O=C(c1cc(Cc2n[nH]c(=O)c3ccccc23)ccc1F)N1CCN(C(=O)C2CC2)CC1 [Olaparib] (partner 8 µM)
Method in brief: as §1

Row | Cell Line | relative viability ([1]; first compound 0.0025 µM) | relative viability ([1]; first compound 0.007906 µM) | relative viability ([1]; first compound 0.025 µM) | relative viability ([1]; first compound 0.07906 µM) | relative viability ([1]; first compound 0.25 µM) | relative viability (IDH-C35 + Palbociclib; first compound 0.08 µM) | relative viability (IDH-C35 + Palbociclib; first compound 0.253 µM) | relative viability (IDH-C35 + Palbociclib; first compound 0.8 µM) | relative viability (IDH-C35 + Palbociclib; first compound 2.53 µM) | relative viability (IDH-C35 + Palbociclib; first compound 8 µM) | relative viability (IDH-C35 + Pictilisib; first compound 0.08 µM) | relative viability (IDH-C35 + Pictilisib; first compound 0.253 µM) | relative viability (IDH-C35 + Pictilisib; first compound 0.8 µM) | relative viability (IDH-C35 + Pictilisib; first compound 2.53 µM) | relative viability (IDH-C35 + Pictilisib; first compound 8 µM) | relative viability (IDH-C35 + Olaparib; first compound 0.08 µM) | relative viability (IDH-C35 + Olaparib; first compound 0.253 µM) | relative viability (IDH-C35 + Olaparib; first compound 0.8 µM) | relative viability (IDH-C35 + Olaparib; first compound 2.53 µM) | relative viability (IDH-C35 + Olaparib; first compound 8 µM)
1 | NCI-H2023 | 0.305 | 0.375 | 0.296 | 0.402 | 0.491 | 0.398 | 0.34 | 0.378 | 0.384 | 0.357 | 0.285 | 0.22 | 0.245 | 0.229 | 0.233 | 0.513 | 0.455 | 0.503 | 0.474 | 0.446
2 | NCI-H2085 | 0.495 | 0.439 | 0.431 | 0.451 | 0.492 | 0.448 | 0.476 | 0.495 | 0.492 | 0.456 | 0.489 | 0.523 | 0.451 | 0.49 | 0.442 | 0.807 | 0.776 | 0.77 | 0.789 | 0.712
3 | NCI-H2087 | 0.244 | 0.264 | 0.193 | 0.16 | 0.223 | 0.225 | 0.211 | 0.24 | 0.308 | 0.228 | 1.15 | 0.901 | 0.83 | 0.984 | 0.886 | 0.561 | 0.533 | 0.627 | 0.58 | 0.558
4 | NCI-H2126 | 0.356 | 0.335 | 0.368 | 0.327 | 0.369 | 0.349 | 0.362 | 0.333 | 0.351 | 0.359 | 0.494 | 0.508 | 0.48 | 0.507 | 0.472 | 0.896 | 0.928 | 0.92 | 0.912 | 0.917
5 | NCI-H2170 | 0.432 | 0.446 | 0.431 | 0.39 | 0.409 | 0.382 | 0.377 | 0.425 | 0.385 | 0.379 | 0.33 | 0.378 | 0.332 | 0.342 | 0.336 | 0.616 | 0.654 | 0.587 | 0.571 | 0.593
6 | NCI-H2228 | 0.794 | 0.768 | 0.779 | 0.793 | 0.933 | 0.795 | 0.728 | 0.738 | 0.723 | 0.728 | 0.328 | 0.296 | 0.421 | 0.486 | 0.457 | 0.601 | 0.781 | 0.61 | 0.71 | 0.516
7 | NCI-H2347 | 0.426 | 0.4 | 0.431 | 0.36 | 0.445 | 0.432 | 0.469 | 0.42 | 0.475 | 0.448 | 0.627 | 0.603 | 0.813 | 0.788 | 0.899 | 0.577 | 0.628 | 0.609 | 0.522 | 0.554
8 | NCI-H2405 | 0.529 | 0.531 | 0.54 | 0.473 | 0.563 | 0.538 | 0.512 | 0.525 | 0.561 | 0.525 | 0.487 | 0.363 | 0.377 | – | 0.52 | 0.85 | 0.858 | 0.825 | 0.98 | 0.884
9 | NCI-H3122 | 0.165 | 0.241 | 0.205 | 0.176 | 0.209 | 0.183 | 0.178 | 0.186 | 0.187 | 0.182 | 0.628 | 0.572 | 0.592 | 0.611 | 0.598 | 0.583 | 0.537 | 0.587 | 0.623 | 0.665
10 | PC-3 [JPC-3] | 0.528 | 0.502 | 0.539 | 0.533 | 0.524 | 0.563 | 0.532 | 0.558 | 0.587 | 0.534 | 0.802 | 0.772 | 0.687 | 0.844 | 0.703 | 1.15 | 1.11 | 1.2 | 1.07 | 1.06
11 | PC-14 | 0.453 | 0.45 | 0.493 | 0.468 | 0.646 | 0.515 | 0.511 | 0.484 | 0.573 | 0.441 | 0.712 | 0.685 | 0.641 | 0.575 | 0.642 | 0.251 | 0.271 | 0.222 | 0.292 | 0.237
12 | RERF-LC-KJ | 1.12 | 1.11 | 1.04 | 1.06 | 1.12 | 1.08 | 1.03 | 0.991 | 1.1 | 1.09 | 0.53 | 0.671 | 0.529 | 0.554 | 0.509 | 0.853 | 0.896 | 0.963 | 0.985 | 0.869
13 | SK-LU-1 | 0.375 | 0.349 | 0.294 | 0.278 | 0.281 | 0.47 | 0.387 | 0.366 | 0.391 | 0.418 | 0.535 | 0.483 | 0.641 | 0.606 | 0.63 | 0.422 | 0.399 | 0.396 | 0.484 | 0.448
14 | SK-MES-1 | 0.358 | 0.336 | 0.319 | 0.329 | 0.333 | 0.307 | 0.286 | 0.301 | 0.317 | 0.271 | 0.335 | 0.414 | 0.358 | 0.343 | 0.295 | 0.737 | 0.728 | 0.609 | 0.693 | 0.631
15 | SW 1573 | 0.469 | 0.439 | 0.42 | 0.407 | 0.47 | 0.43 | 0.432 | 0.388 | 0.462 | 0.353 | 0.468 | 0.502 | 0.439 | 0.59 | 0.476 | 0.5 | 0.54 | 0.496 | 0.433 | 0.467
